In ChEMBL document CHEMBL3301361, “Experimental in vitro DMPK and physicochemical data on a set of publicly disclosed compounds”:

Experiments:
in vitro [1] = settings: human, plasma
in vitro [2] = settings: SD, HW or BN, rat, plasma
physchem = settings: octan-1-ol/water, pH 7.4, LogD7.4

Work on O=C(CCCN1CC[Si](O)(c2ccc(Cl)cc2)CC1)c1ccc(F)cc1 yielded a fraction unbound at 5 h (in vitro [1]; PPB) of 0.0544 and a fraction unbound at 5 h (in vitro [2]) of 0.0544.
Molecule Cc1cc(Oc2ncc(C(F)(F)F)cc2Cl)ccc1CC1SC(=O)NC1=O (stereo unspecified) has a fraction unbound at 5 h (in vitro [1]; PPB) of 0.0006 and a fraction unbound at 5 h (in vitro [2]) of 0.0021.
With O=c1cc(N2CCOCC2)nc2n(Cc3cccc(Cl)c3)ccn12 the fraction unbound at 5 h (in vitro [1]; PPB) was 0.101 and the fraction unbound at 5 h (in vitro [2]) was 0.11.
CC(C)(Oc1ccc(Cl)cc1)C(=O)N1CCN(c2ccccn2)CC1 showed a fraction unbound at 5 h (in vitro [1]; PPB) of 0.0077 and a fraction unbound at 5 h (in vitro [2]) of 0.0092.
O=C(NCc1ccccn1)c1cc(-c2ccccc2)nc2ccccc12 showed a fraction unbound at 5 h (in vitro [1]; PPB) of 0.013 and a fraction unbound at 5 h (in vitro [2]) of 0.02.
O=C(O)c1c(O)c(Cc2ccc(Cl)cc2)nc2c3c(ccc12)CCCC3 [PSI-697] gave a fraction unbound at 5 h (in vitro [1]; PPB) of 0.0007 and a fraction unbound at 5 h (in vitro [2]) of 0.0014.
In the case of CCOC(=O)Nc1ccc(NCc2ccc(F)cc2)cc1N [EZOGABINE], the fraction unbound at 5 h (in vitro [1]) is reported as 0.139 and the fraction unbound at 5 h (in vitro [2]) is reported as 0.201.
Work on O=c1nc(N2CCOCC2)cc(N(CCO)Cc2cccc3ccccc23)[nH]1 yielded a fraction unbound at 5 h (in vitro [1]; PPB) of 0.139 and a fraction unbound at 5 h (in vitro [2]) of 0.151.
With Cn1c(-c2cc(=O)c(O)c[nH]2)nn(S(=O)(=O)NC(=O)N2C[C@H](NC(=O)/C(=N\OC(C)(C)C(=O)O)c3csc(N)n3)C2=O)c1=O the fraction unbound at 5 h (in vitro [1]; PPB) was 0.0447 and the fraction unbound at 5 h (in vitro [2]) was 0.0149.
O=C1Cc2cc(CCN3CCN(c4nsc5ccccc45)CC3)c(Cl)cc2N1 [ZIPRASIDONE] gave a fraction unbound at 5 h (in vitro [1]; PPB) of 0.001 and a fraction unbound at 5 h (in vitro [2]) of 0.003.
Work on CCN1CCC[C@H]1CNC(=O)c1cc(Br)cc(OC)c1OC yielded a logD (physchem) of 1.2, a fraction unbound at 5 h (in vitro [1]; PPB) of 0.54 and a fraction unbound at 5 h (in vitro [2]) of 0.701.
CC(NC(=O)c1cc2ccccc2[nH]1)c1ccccc1 (stereo unspecified) gave a fraction unbound at 5 h (in vitro [1]; PPB) of 0.0219 and a fraction unbound at 5 h (in vitro [2]) of 0.0366.
Cc1nc2ccc(NS(=O)(=O)c3ccc4c(c3)OCCO4)cc2s1 showed a fraction unbound at 5 h (in vitro [1]; PPB) of 0.0033 and a fraction unbound at 5 h (in vitro [2]) of 0.0067.
NC(=O)c1cc(C(N)=O)n(-c2cccc(-c3cc(C(F)(F)F)ccc3C(F)(F)F)c2)n1 gave a logD (physchem) of 3.4, a fraction unbound at 5 h (in vitro [1]; PPB) of 0.0328 and a fraction unbound at 5 h (in vitro [2]) of 0.0568.
O=C(NCc1cccc(OC(F)(F)F)c1)C1c2ccccc2C(=O)N1CCc1ncc(F)cn1 (stereo unspecified) gave a fraction unbound at 5 h (in vitro [1]; PPB) of 0.0447 and a fraction unbound at 5 h (in vitro [2]) of 0.179.
Molecule Cc1nc(C)c(-c2ccc([C@H]3CC[C@H](CC(N)=O)CC3)cc2)nc1C(N)=O has a logD (physchem) of 2.7, a fraction unbound at 5 h (in vitro [1]; PPB) of 0.129 and a fraction unbound at 5 h (in vitro [2]) of 0.0556.
Molecule COc1ncc(-c2ccccc2C(F)(F)CNC(=O)c2ccc(COCC(F)(F)F)nc2)cn1 has a fraction unbound at 5 h (in vitro [1]; PPB) of 0.0099 and a fraction unbound at 5 h (in vitro [2]) of 0.129.
Work on CC(O)(C(=O)Nc1ccc(S(=O)(=O)N2CCOCC2)cc1)C(F)(F)F (stereo unspecified) yielded a fraction unbound at 5 h (in vitro [1]; PPB) of 0.371 and a fraction unbound at 5 h (in vitro [2]) of 0.151.
Work on CCC[C@@H](c1ccc(C(=O)O)c(Oc2cccc(Cl)c2)c1)N1CCC[C@H](n2cc(C)c(=O)[nH]c2=O)C1 yielded a fraction unbound at 5 h (in vitro [1]; PPB) of 0.007 and a fraction unbound at 5 h (in vitro [2]) of 0.0179.
CN[C@H]1CC[C@@H](c2ccc(Cl)c(Cl)c2)c2ccccc21 [SERTRALINE] showed a logD (physchem) of 3.15, a fraction unbound at 5 h (in vitro [1]; PPB) of 0.0146 and a fraction unbound at 5 h (in vitro [2]) of 0.02.
CN(C)CCOc1cc(NS(=O)(=O)c2c(Cl)cc(C(F)(F)F)cc2Cl)ccc1Cl [SB611812] gave a logD (physchem) of 2.99, a fraction unbound at 5 h (in vitro [1]; PPB) of 0.0029 and a fraction unbound at 5 h (in vitro [2]) of 0.0024.
COc1ccc(-c2c(C(=O)N3CCC[C@H]3CO)cc3cccnn23)cc1 showed a fraction unbound at 5 h (in vitro [1]; PPB) of 0.11 and a fraction unbound at 5 h (in vitro [2]) of 0.262.
CNC1(c2ccccc2Cl)CCCCC1=O (stereo unspecified) [KETAMINE] showed a fraction unbound at 5 h (in vitro [1]) of 0.58 and a fraction unbound at 5 h (in vitro [2]) of 0.552.
In the case of CC(C)Oc1cc(Nc2nc(N[C@@H](C)c3ccc(F)cc3)nc(NC(CO)CO)c2Cl)n[nH]1, the fraction unbound at 5 h (in vitro [1]; PPB) is reported as 0.0358 and the fraction unbound at 5 h (in vitro [2]) is reported as 0.0428.
Molecule O=c1cc(N2CCOCC2)nc(NCc2c(Cl)cccc2Cl)[nH]1 has a fraction unbound at 5 h (in vitro [1]; PPB) of 0.04 and a fraction unbound at 5 h (in vitro [2]) of 0.0418.
For COc1ncc(-c2c(C)ccc(F)c2CCNC(=O)c2ccc(OCC(F)(F)F)nc2)cn1, the fraction unbound at 5 h (in vitro [1]; PPB) was 0.002 and the fraction unbound at 5 h (in vitro [2]) was 0.0437.
Work on COc1ccc2c(c1)C(=O)C(=O)N2CC1COc2ccccc2O1 (stereo unspecified) yielded a fraction unbound at 5 h (in vitro [1]; PPB) of 0.0066 and a fraction unbound at 5 h (in vitro [2]) of 0.0059.
CC(C)C(NC(=O)c1cc(Cl)ccc1C(F)(F)F)C(=O)c1ccc(C#N)cc1 (stereo unspecified) showed a fraction unbound at 5 h (in vitro [1]; PPB) of 0.0262 and a fraction unbound at 5 h (in vitro [2]) of 0.0428.
In the case of COc1cccc2c1c(NS(=O)(=O)c1ccc(Cl)s1)nn2Cc1cccc(CNC(C)=O)c1, the fraction unbound at 5 h (in vitro [1]; PPB) is reported as 0.0066 and the fraction unbound at 5 h (in vitro [2]) is reported as 0.0028.
c1ccc2c(c1)CCC[C@H]2Nc1nc2ccccc2[nH]1 showed a fraction unbound at 5 h (in vitro [1]; PPB) of 0.007 and a fraction unbound at 5 h (in vitro [2]) of 0.0437.
Work on CC(C)C(NC(=O)c1ccccc1)C(=O)c1ccc(C#N)cc1 (stereo unspecified) yielded a fraction unbound at 5 h (in vitro [1]; PPB) of 0.0928 and a fraction unbound at 5 h (in vitro [2]) of 0.124.
Molecule O=C(O)c1cccnc1 [NIACIN] has a fraction unbound at 5 h (in vitro [1]; PPB) of 0.552 and a fraction unbound at 5 h (in vitro [2]) of 0.546.
CC(C)(C)OC(=O)NC[C@H]1CC[C@H](CNC(=O)c2cc(-c3ccccc3)nc3ccccc23)CC1 gave a fraction unbound at 5 h (in vitro [1]; PPB) of 0.0008 and a fraction unbound at 5 h (in vitro [2]) of 0.005.
